Data set [1] is described as follows: Solubility study of Pro-7 in solvents. The settings on record: 25 °C, 48 h. In kind it is physicochemical. How it is done: The solubility of Pro-7 was tested in water, ethanol, methanol, dichloromethane, chloroform, and acetone. An excess amount of the Pro-7 was added to a known volume of each solvent in a screw cap vial. Each vial was kept in a shaking water bath at 25 °C for 48 h. The content of each vial was filtered using an Acrodisc® syringe filter of […] (Port Washington, NY, USA), and the concentration of Pro-7 determined spectrophotometrically at 296 nm.

Data set [2] is described as follows: In-vivo pharmacokinetic study in rat. The arrangement: species or system male Sprague Dawley rats. How it is done:
Investigations were carried out to examine the pharmacokinetic profiles of Pro-7, including the enteric-coated microspheres and the intravenous (IV) formulation using a one-period parallel design. The study design and conduct adhered to ethical guidelines and regulatory standards to ensure the welfare of the animals. The study was also conducted in strict adherence to internationally recognized guidelines for ethical research and regulatory standards. The principles of Good Clinical Practice (GCP), the guidelines set forth by the International Conference on Harmonization (ICH), and the rigorous standards of the European Medicines Agency (EMA) served as the framework for the study’s execution. The protocol for the animal study underwent a thorough evaluation and received formal approval from the Research Ethics Committee at the Faculty of Pharmacy, King Abdulaziz University, Saudi Arabia.
Male Sprague Dawley rats, each with an average weight of 250 g were housed in a controlled facility with a 12-h light/dark cycle, at constant temperature of 25 °C, with continuous access to both food and water throughout the study. All animals were acclimated to standard housing for at least 7 days. The animals were separated into distinct groups (n = 5). Group I was treated with a single PO (50 mg/kg body weight) dose, while Group II was administered a single IV (25 mg/kg body weight) dose of Pro-7. Additional three control groups were included to validate and enhance the robustness of our findings. These include a normal control group without treatment, a control IV administration group that was administered non-medicated SNEDDS formulation, and a control oral administration group that was given non-medicated oral formulation.
The oral formulation was suspended in 1% aqueous carboxymethyl cellulose. Blood samples from the jugular vein, at 0.25 (for IV only), 0.5, 2, 4, 8, 10, 12, and 24 h were collected into EDTA tubes. To determine the concentration of TD-7 in the whole blood, aliquots (45 µL) of blood samples were mixed with 20 µL of warfarin (used as IS) in a concentration of 1 µg/mL and 500 µL of 1% formic acid in acetonitrile. The vials were centrifuged for 5 min at 10,000 rpm, and 2 µL of the resulting solution was analyzed by LC-MS/MS.
The concentration of both TD-7 and Pro-7 in the collected blood samples were quantified using LC–MS/MS method utilizing LLS/DMPK/005 Shimadzu-8045 LC-MS/MS instrument equipped with Lab solution 6.8 software. Linearity of the TD-7 and Pro-7 assay methods was verified within the concentration range 8.21–3776 and 20.4–9396 ng/mL, respectively. A regression coefficient (R^2) of more than 0.993 was obtained. The analytical method was validated in accordance with the FDA Bio-analytical Method Validation Guidelines 2003. Chromatographic separation was conducted on Atlantis C18 (4.6 × 50 mm, 3.5 µm) at 30 °C. The injection volume was 2 µL, the flow rate was adjusted at 0.7 mL/min, the total run time was 2.5 min, and the mobile phase consisted of 0.1% formic acid in acetonitrile:10 mM aqueous ammonium formate (70:30 v/v). The retention times for TD-7, Pro-7 and IS were 1.047, 1.178, and 1.503 min, respectively. The limit of quantification for TD-7 and Pro-7 was established at of 8.21 and 20.4, respectively.
Pharmacokinetic parameters were calculated using non-compartmental analysis with Kinetica TM (version 4, Thermo Electron Corporation, Waltham, MA, USA) software. The following parameters were determined: Maximum plasma concentration (Cmax), Elimination half-life (t½), Area under the plasma concentration-time curve from time 0 to the last measurable concentration (AUC0–t), Area under the plasma concentration-time curve from time 0 to infinity (AUC0–∞), Clearance (Cl), and Volume of distribution (Vd).
The t½ was determined as 0.693 divided by the elimination rate constant. […]

Data set [3] can be described thus: Drug solubility in SNEDDS formulation. The settings on record: SNEDDS (oleic acid 15%, tween 80 10%, PEG 400 75%), 25 °C, 48 h. In kind it is physicochemical. How it is done:
To determine the drug solubility in the prepared SNEDDS formulation, excess amount (approximately 300 mg) of Pro-7 was added to 4 mL of the prepared SNEDDS. The mixture was vortex and kept in a shaking water bath at 25 °C for 48 h, and then filtered using Acrodisc® syringe filter ([…]) and the concentration of Pro-7 determined spectrophotometrically at 296 nm.

On the set-up of data set [4]: method as in PMID 34657559, PMID 9490025, PMID 10376886, PMID 11154732. The note with it: cited from earlier work.
In data set [5] the test system is sickling. Also noted: method as in PMID 30289405. The note with it: cited from earlier work.
Setting [6] is: intravenous 25 mg/kg Pro-7, rat, blood, n = 5.
[7] abbreviates: intravenous 25 mg/kg Pro-7, rat, n = 5.
Where [8] appears, read: oral 50 mg/kg Pro-7 (enteric-coated formulation), rat, blood, n = 5.
[9] abbreviates: oral 50 mg/kg Pro-7 (enteric-coated formulation), rat, n = 5.

In general, solubility refers to how much of the substance goes into solution per volume. As usually defined, the aqueous solubility is the concentration that dissolves in the medium under given conditions. A low value points to little dissolved substance. For orientation: Cmax means the peak of the concentration-time curve. Usually t½ stands for the time needed for the level to fall by half in the phase considered. Higher therefore signals slow decline. The term Tmax denotes the time from dosing to the highest level. As to “1-(2-(3-((6-(hydroxymethyl)pyridin-2-yl)methoxy)-5 methoxyphenyl)thiazolidin-4-yl)propan-1-one [Pro-7]”, the solubility in data set [1] (acetone) is reported as 11.64 mg/mL; in data set [1] (chloroform), 66.43 mg/mL; in data set [1] (dichloromethane), 54.89 mg/mL; in data set [1] (ethanol), 85.98 mg/mL; in data set [1] (methanol), 88.34 mg/mL. For the same compound, in data set [1] (water), the aqueous solubility is recorded as 0.165 mg/mL. The “AUC0–t” value in data set [2] (setting [6]) turned out to be 1.83 ± 0.737 µg·h/mL; in data set [2] (setting [8]) it was 0.672 ± 0.255 µg·h/mL. The “AUC0–∞” value in data set [2] (setting [6]) came out at 1.956 ± 0.792 µg·h/mL; in data set [2] (setting [8]), 0.73 ± 0.225 µg·h/mL. In addition, the results for the peak concentration (Cmax) in data set [2] (setting [6]) and in data set [2] (setting [8]) were 1.426 ± 0.926 µg/mL and 0.469 ± 0.322 µg/mL, respectively. The t½ in data set [2] (setting [6]) was determined as 4.98 ± 1.89 h; in data set [2] (setting [8]), 4.73 ± 1.22 h. In addition, the Cl was 14.3 ± 5.15 L/h/kg in data set [2] (setting [7]) and 12.053 ± 2.06 L/h/kg in data set [2] (setting [9]). The Vd was found to be 98.9 ± 45.3 L/kg in data set [2] (setting [7]) and 83.7 ± 22.1 L/kg in data set [2] (setting [9]). Moreover, in data set [2] (setting [8]), the Tmax was found to be 0.5 ± 0.0 h. In addition, the “Fraction of drug absorbed (% F)” value in data set [2] (oral 50 mg/kg vs intravenous 25 mg/kg, rat) is 18.4%. Moreover, the “solubility in the prepared SNEDDS formulation” value in data set [3] worked out at 68.94 mg/mL.
As for `COc1ccc(OCc2cccc(CO)n2)c(C=O)c1` [TD-7, 2-((6-(hydroxymethyl)pyridin-2-yl)methoxy)-5-methoxybenzaldehyde], the “oral bioavailability (in words)” value in data set [4] is recorded as “low oral bioavailability”. For the same compound, the “sickling inhibition potency over vanillin” value in data set [5] is listed as “several fold”.

(Values after article PMC10675597, “Design, Synthesis, and Antisickling Investigation of a Thiazolidine Prodrug of TD-7 That Prolongs the Duration of Action of Antisickling Aromatic Aldehyde” (Pharmaceutics, 2023).)
